“And” between values parts separate entries of the source, which are not always exact repeats. Equal entries are not always repeated.
Columns and labels:
H3255 cells = experiment: Anti-proliferation activity (MTS assay); format: cell-based; conditions: Homo sapiens, NCI-H3255; H3255 lung cancer cells, 72 hours
Description: MTS assay. […] Cell viability was assessed using the [3-(4,5-dimethylthiazol-2-yl)-5-(3-carboxymethoxyphenyl)-2-(4-sulfophenyl)-2H-tetrazolium inner salt (MTS) cell proliferation assay (Promega).

EGFR [1] = molecular target: T1, EGFR (Homo sapiens, UniProt P00533, L858R); experiment: Live-cell labeling of H3255 cells by click probes (in-gel fluorescence); format: cell-based
T1 construct: endogenous in cells; host or cells: H3255 human lung cancer cells
Description: In-gel fluorescence analysis of cell labeling. Cell pellets were resuspended in Pierce IP lysis buffer (Thermo Scientific) supplemented with protease inhibitor cocktail (Thermo Scientific). After lysis on ice, the lysate was centrifuged at 2000 g, 4° C. for 2 min, and the supernatant was collected and normalized to 1.5 mg/mL with PBS. 40 μL of each sample was first blocked with iodoacetamide (15 mM, Sigma) for 30 min at room temperature in the dark, followed by click reaction with either DBCO-TMR or tetrazine-TMR (25 μM, Click Chemistry Tools) at room temperature for 30 min. The sample was then boiled in LDS sample buffer at 95° C. for 5 min, and resolved by 4-12% SDS-PAGE gel. Finally, the fluorescently labeled proteins were visualized with a ChemiDoc imaging system and subsequently stained with Bio-Safe Coomassie (Bio-Rad).

EGFR [2] = experiment: Multiplexed ExoSCOPE: drug occupancy in EVs secreted by drug-treated cells; format: cell-based, human; conditions: heterogeneous cell mixture, 1 μM, within 24 hours, CD63/EGFR/EpCAM/MUC1 vesicle subpopulations
Description: ExoSCOPE assay. We developed the ExoSCOPE assay for the direct analysis of both marker composition and drug occupancy in EVs. Samples were diluted 1:1 in PBS before ExoSCOPE analyses. We treated the diluted samples with click probe A3 (tagged with TCO, 100 nM) at 37° C. for 30 min before analysis. […] To measure EV marker composition (for a single marker analysis), we incubated the samples on antibody-functionalized ExoSCOPE sensors (1 μL, 10 min, room temperature), to achieve marker-specific EV capture. As a control experiment, sensors functionalized with IgG isotope control antibodies were used. Relative spectral changes (plasmonic signals) were measured to determine marker-specific EV binding. To measure EV drug occupancy, we used the click probes within sensor-bound vesicles to achieve enzymatic amplification. Specifically, we utilized the probes' click handles (TCO) to recruit tetrazine-conjugated horseradish peroxidase (HRP), which catalyzed in situ, enzymatic conversion of the soluble substrate (3,3′-diaminobenzidine, DAB) to form local, insoluble polymeric products on labeled vesicles; these insoluble deposits acted as optical products to amplify the plasmonic signals. […] Relative spectral changes were measured to determine probe labeling. […]

T1 sequence (P00533 25-1210 L858R): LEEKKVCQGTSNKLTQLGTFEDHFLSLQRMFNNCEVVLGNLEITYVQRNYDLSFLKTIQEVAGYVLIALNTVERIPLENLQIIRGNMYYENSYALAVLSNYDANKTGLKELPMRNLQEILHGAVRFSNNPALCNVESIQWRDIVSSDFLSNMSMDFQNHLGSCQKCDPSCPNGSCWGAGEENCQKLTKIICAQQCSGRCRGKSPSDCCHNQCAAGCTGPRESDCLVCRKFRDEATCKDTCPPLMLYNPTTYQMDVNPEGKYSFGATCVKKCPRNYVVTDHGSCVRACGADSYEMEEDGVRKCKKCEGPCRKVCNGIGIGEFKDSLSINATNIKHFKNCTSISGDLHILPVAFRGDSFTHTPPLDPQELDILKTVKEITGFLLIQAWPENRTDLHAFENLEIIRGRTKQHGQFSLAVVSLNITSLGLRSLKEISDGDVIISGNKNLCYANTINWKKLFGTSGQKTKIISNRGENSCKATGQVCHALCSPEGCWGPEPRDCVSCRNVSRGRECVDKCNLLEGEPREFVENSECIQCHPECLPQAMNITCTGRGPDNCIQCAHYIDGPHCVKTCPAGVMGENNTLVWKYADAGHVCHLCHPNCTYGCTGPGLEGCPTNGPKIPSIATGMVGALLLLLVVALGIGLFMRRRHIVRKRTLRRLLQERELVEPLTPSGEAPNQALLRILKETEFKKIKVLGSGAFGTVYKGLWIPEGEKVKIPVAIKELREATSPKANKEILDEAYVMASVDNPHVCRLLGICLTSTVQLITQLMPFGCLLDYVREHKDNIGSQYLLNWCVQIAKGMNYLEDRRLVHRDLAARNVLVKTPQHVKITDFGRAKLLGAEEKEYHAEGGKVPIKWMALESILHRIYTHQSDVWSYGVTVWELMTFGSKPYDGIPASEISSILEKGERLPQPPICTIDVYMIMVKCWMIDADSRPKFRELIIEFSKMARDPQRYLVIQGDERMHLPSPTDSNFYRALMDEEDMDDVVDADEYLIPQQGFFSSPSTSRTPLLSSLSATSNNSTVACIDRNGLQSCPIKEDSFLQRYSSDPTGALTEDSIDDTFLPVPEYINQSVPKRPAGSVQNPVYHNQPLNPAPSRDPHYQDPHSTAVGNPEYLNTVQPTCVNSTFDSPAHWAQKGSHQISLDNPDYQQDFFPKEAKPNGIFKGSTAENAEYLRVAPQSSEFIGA

Row | GI50 (H3255 cells) [nM] | signal-to-noise ratio of EGFR labeling among the click probes (EGFR [1]; 100 nM probe, with or without afatinib 1 μM) | incubation time to maximal labeling (EGFR [1]; probe 100 nM, H3255 cells) [h] | live-cell EGFR labeling efficiency (EGFR [1]; probe 100 nM, H3255 cells, 15 min incubation) | SMILES | time-dependent change of ξEV (EGFR [2])
1 | 1.8 | best signal-to-noise ratio | 1 | > 90% and 90% | CN(C)C/C=C/C(=O)Nc1cc2c(Nc3ccc(F)c(Cl)c3)ncnc2cc1OCCCNC(=O)CNC(=O)OC1CC/C=C/CCC1 (stereo not drawn) [probe A3, (E)-cyclooct-4-en-1-yl (2-((3-((4-((3-chloro-4-fluorophenyl)amino)-6-((E)-4-(dimethylamino)but-2-enamido)quinazolin-7-yl)oxy)propyl)amino)-2-oxoethyl)carbamate] | –
2 | 0.6 | – | – | – | CN(C)C/C=C/C(=O)Nc1cc2c(Nc3ccc(F)c(Cl)c3)ncnc2cc1O[C@H]1CCOC1 [afatinib, reference compound] | –
3 | – | – | – | – | C#Cc1cccc(Nc2ncnc3cc(OCCOC)c(OCCOC)cc23)c1 [erlotinib] | increased
